These results are taken from patent US20220170028A1, “NOVEL INTERLEUKIN-2 VARIANTS AND BIFUNCTIONAL FUSION MOLECULES THEREOF” (Cugene Inc, priority 2019, published 2022).

Holding throughout (format): cell-based
Experiment [1] concerns STAT5 phosphorylation in CD4+ Tconv cells. Put plainly: STAT5 phosphorylation in CD4+ Tconv cells, human PBMC assay by FACS. An excerpt:
(§1) Single amino acid substitutions were introduced to IL-2 at positions corresponding to amino acids interacting with receptor subunit(s) β or γ or βγ. These substitutions were aimed to reduce IL-2 signaling capacity through the intermediate affinity IL-2Rβγ complex and confer signaling specificity from the high affinity IL-2Rαβγ. IL-2 variants containing single amino acid substitutions were examined for their ability to differentially stimulate STAT5 phosphorylation in CD4 positive Treg and Tconv cells. STAT5 is known to be involved in the downstream signaling cascade upon IL-2 binding to the transmembrane IL-2 receptors. The phosphorylation of STAT5 in defined lymphocyte subpopulations was measured using fresh human peripheral blood mononuclear cells (PBMC) and the forkhead transcription factor FOXP3 was used to identify the Treg population in FACS analysis.
(§2) Briefly, human PBMC were isolated by Ficoll-Hypaque centrifugation from the buffy coat of a healthy donor. PBMC were starved in serum-free MACS buffer at 4° C. for 1 hour. 2×10^5 PBMC were then treated with serial dilutions of test compounds for 30 min at 37° C. Cells were fixed and permeabilized with Foxp3/Transcription Factor Staining Buffer Set (EBIO) by incubating with 1× Foxp3 fixation/permeabilization working solution for 30 minutes and washing with 1× permeabilization buffer. Cells were additionally fixed with Cytofix buffer and permeabilized with Perm Buffer III (BD Biosciences) and then washed. After blocking Fc receptors by adding human TruStain FcX (1:50 dilution), cells were stained with a mixture of anti-CD25-PE, anti-FOXP3-APC, anti-pSTAT5-FITC, and anti-CD4-PerCP-Cy5.5 antibodies at concentrations recommended by the manufacturer for 45 minutes at room temperature. Cells were collected by centrifugation, washed, resuspended in FACS buffer, and analyzed by flow cytometry. The flow cytometry data was gated into CD4+/Foxp3+/CD25^high and CD4+/Foxp3−/CD25^low groups for the Treg and CD4 conventional T cell subsets, respectively. Data are expressed as a percent of pStat5 positive cells in gated population.

The test system of experiment [2] is STAT5 phosphorylation in CD4+ Treg cells. Put plainly: STAT5 phosphorylation in CD4+ Treg cells, human PBMC assay by FACS.
Description: as §1, §2
For orientation: A flow cytometer gives signals particle by particle.

For experiment [3], the system named is CD4+ Treg vs CD4+ Tconv cells. The experiment is described as follows: STAT5 phosphorylation, selectivity / activity profile Treg versus CD4+ Tconv cells, human PBMC.
Description: as §1, §2
The S125I substitution was then introduced into wild-type IL-2 or IL-2 variants that already harbored 1 or 2 mutations targeting receptor subunit(s) β or γ or βγ. The resulting IL-2 variants containing isoleucine at position 125 were tested for their ability to stimulate STAT5 phosphorylation in Treg and Tconv cells in comparison with their respective serine counterparts at position 125. Table 7 lists the potency and selectivity of IL-2 variants in Treg cells. The two molecules in the same row of Table 7 share the same other amino acid substitution(s) and differ only at position 125 with either serine or isoleucine.

“Also recorded” adds a separate entry of the source.

Take “P-0367: IL-2 D20S Fc fusion, SEQ ID NO: 78”: in experiment [1], the “STAT5 phosphorylation activity in CD4+ Tconv cells (in words)” value was “largely diminished or abolished”. The “STAT5 phosphorylation activity in Treg cells (in words)” value in experiment [2] is “ability to induce STAT5 phosphorylation”.

As to “P-0417: IL-2 L19N/Q126E Fc fusion, SEQ ID NO: 103”, in experiment [2], the “STAT5 phosphorylation activity in Treg cells (in words)” value was “pronounced reduced potency”.

“P-0863: Fc fusion, 7 amino acid N-terminal deletion of P-0511 IL-2 variant (Table 4H prints L19D), SEQ ID NO: 303”: the “STAT5 phosphorylation activity in Treg cells (in words)” value in experiment [2] is on record as “fully retained potency”.

As for “P-0464: IL-2 L19Y/Q126K Fc fusion, SEQ ID NO: 176”, the “STAT5 phosphorylation activity in CD4+ Tconv cells (in words)” value in experiment [1] is given as “varied significantly”. Besides, the “STAT5 phosphorylation activity in Treg cells (in words)” value in experiment [2] was “retained comparable potency”.

“P-0449: IL-2 L19S/Q126E Fc fusion, SEQ ID NO: 175”: in experiment [1], the “STAT5 phosphorylation activity in CD4+ Tconv cells (in words)” value was “largely abolished”. For the same substance, the “STAT5 phosphorylation activity in Treg cells (in words)” value in experiment [2] was “significant potency”. The “activity profile / selectivity window Treg over CD4+ Tconv (in words)” value in experiment [3] was “on par with Benchmark-2”.

Take “P-0536: Tocilizumab IL-2 L19H/S125I/Q126E bivalent fusion, SEQ ID NOs 253 + 255”: the “STAT5 phosphorylation activity in Treg cells (in words)” value in experiment [2] is reported as “slightly higher activity than its monomeric equivalent P-0546”.

Take “P-0695: Tocilizumab IL-2 L19H/S125I/Q126H bivalent fusion, SEQ ID NOs 253 + 309”: in experiment [3], the “activity profile / selectivity window Treg over CD4+ Tconv (in words)” value is listed as “did not impair the protein activity nor improve the Treg selectivity”.

For “P-0374: IL-2 L19R Fc fusion, SEQ ID NO: 83”, the “STAT5 phosphorylation activity in CD4+ Tconv cells (in words)” value in experiment [1] was “largely retained the biological activity”.

For the substance “P-0699: Tocilizumab IL-2 L19H/S125I/Q126S bivalent fusion, SEQ ID NOs 253 + 312”, the “activity profile / selectivity window Treg over CD4+ Tconv (in words)” value in experiment [3] is “did not impair the protein activity nor improve the Treg selectivity”.

With “P-0303: IL-2 Q126E Fc fusion, SEQ ID NO: 90”, the “STAT5 phosphorylation activity in Treg cells (in words)” value in experiment [2] is on record as “minimally impacted the pSTAT5 activation potency”. In addition, the “activity profile / selectivity window Treg over CD4+ Tconv (in words)” value in experiment [3] is recorded as “modestly improved selective window”.

Turning to “P-0860: IL-2 L19D/S125I/Q126E Fc fusion, SEQ ID NO: 300”, in experiment [2], the “STAT5 phosphorylation activity in Treg cells (in words)” value was “different levels of potency attenuation” and the “maximum possible effect / signaling amplitude of STAT5 phosphorylation in Treg cells” value is recorded as “strikingly lower”.

Turning to “P-0368: IL-2 D20Y Fc fusion, SEQ ID NO: 79”, the “STAT5 phosphorylation activity in CD4+ Tconv cells (in words)” value in experiment [1] is listed as “no biological activity”. The “STAT5 phosphorylation activity in Treg cells (in words)” value in experiment [2] is “no biological activity”.

On to “P-0859: IL-2 L19N/S125I/Q126E Fc fusion, SEQ ID NO: 306”, for which, in experiment [2], the “STAT5 phosphorylation activity in Treg cells (in words)” value is reported as “different levels of potency attenuation” and the “maximum possible effect / signaling amplitude of STAT5 phosphorylation in Treg cells” value was “moderately reduced”.

For “P-0589: Tocilizumab IL-2 D20N/S125I bivalent fusion, SEQ ID NOs 253 + 258”, in experiment [2], the “STAT5 phosphorylation activity in Treg cells (in words)” value is on record as “reduced potency”.

As to “P-0697: Tocilizumab IL-2 L19H/S125I/Q126N bivalent fusion, SEQ ID NOs 253 + 310”, the “activity profile / selectivity window Treg over CD4+ Tconv (in words)” value in experiment [3] is recorded as “did not impair the protein activity nor improve the Treg selectivity”.

As for “P-0480: IL-2 L19H/Q126K Fc fusion, SEQ ID NO: 189”, the “Treg Selectivity” value in experiment [3] (Serine-125 constructs) is reported as “Yes”.

In the case of “P-0559: Tocilizumab IL-2 D20Q/S125I bivalent fusion, SEQ ID NOs 253 + 265”, the “STAT5 phosphorylation activity in CD4+ Tconv cells (in words)” value in experiment [1] is listed as “essentially abolished”. Also, the “STAT5 phosphorylation activity in Treg cells (in words)” value in experiment [2] was “reduced potency”. The “activity profile / selectivity window Treg over CD4+ Tconv (in words)” value in experiment [3] is given as “selective activation of Treg cells over CD4+ Tconv cells”.

As to “P-0423: IL-2 L19Q Fc fusion, SEQ ID NO: 152”, the “STAT5 phosphorylation activity in CD4+ Tconv cells (in words)” value in experiment [1] is listed as “largely retained the biological activity”.

Take “P-0373: IL-2 L19N Fc fusion, SEQ ID NO: 82”: the “STAT5 phosphorylation activity in CD4+ Tconv cells (in words)” value in experiment [1] was “reduced”. Also, the “activity profile / selectivity window Treg over CD4+ Tconv (in words)” value in experiment [3] is “wide window for selective targeting of Treg subset; also recorded: some or significant biased selective window”.

With “P-0427: IL-2 L19S Fc fusion, SEQ ID NO: 156”, the “STAT5 phosphorylation activity in CD4+ Tconv cells (in words)” value in experiment [1] is listed as “largely retained the biological activity”.

As to “P-0698: Tocilizumab IL-2 L19H/S125I/Q126R bivalent fusion, SEQ ID NOs 253 + 311”, the “activity profile / selectivity window Treg over CD4+ Tconv (in words)” value in experiment [3] is “did not impair the protein activity nor improve the Treg selectivity”.

As for “P-0862: Fc fusion, 5 amino acid N-terminal deletion of P-0511 IL-2 variant (Table 4H prints L19D), SEQ ID NO: 302”, the “STAT5 phosphorylation activity in Treg cells (in words)” value in experiment [2] was “fully retained potency”.

Take “P-0474: IL-2 L19Y/Q22K Fc fusion, SEQ ID NO: 186”: the “STAT5 phosphorylation activity in CD4+ Tconv cells (in words)” value in experiment [1] is recorded as “varied significantly”. The “STAT5 phosphorylation activity in Treg cells (in words)” value in experiment [2] was “retained comparable potency”.

As to “P-0366: IL-2 D20Q Fc fusion, SEQ ID NO: 77”, the “STAT5 phosphorylation activity in CD4+ Tconv cells (in words)” value in experiment [1] is “largely diminished or abolished”. For the same substance, the “STAT5 phosphorylation activity in Treg cells (in words)” value in experiment [2] was “ability to induce STAT5 phosphorylation”.

For “P-0365: IL-2 D20N Fc fusion, SEQ ID NO: 76”, the “STAT5 phosphorylation activity in CD4+ Tconv cells (in words)” value in experiment [1] was “largely diminished or abolished”. Further, the “STAT5 phosphorylation activity in Treg cells (in words)” value in experiment [2] is reported as “ability to induce STAT5 phosphorylation”.

Consider “P-0590: Tocilizumab IL-2 L19N/S125I/Q126E bivalent fusion, SEQ ID NOs 253 + 267”, for which, in experiment [2], the “STAT5 phosphorylation activity in Treg cells (in words)” value was “reduced potency” and the “maximum possible effect / signaling amplitude of STAT5 phosphorylation in Treg cells” value is on record as “lower signaling amplitude”.

Consider “P-0694: Tocilizumab IL-2 L19H/S125I/Q126D bivalent fusion, SEQ ID NOs 253 + 308”, for which the “STAT5 phosphorylation activity in CD4+ Tconv cells (in words)” value in experiment [1] is reported as “essentially abolished”. Also, the “STAT5 phosphorylation activity in Treg cells (in words)” value in experiment [2] is on record as “reduced potency”. Moreover, the “activity profile / selectivity window Treg over CD4+ Tconv (in words)” value in experiment [3] is given as “wide selectivity window”.

Turning to “P-0700: Tocilizumab IL-2 L19H/S125I/Q126T bivalent fusion, SEQ ID NOs 253 + 307”, the “activity profile / selectivity window Treg over CD4+ Tconv (in words)” value in experiment [3] was “did not impair the protein activity nor improve the Treg selectivity”.

With “P-0322: IL-2 D20T/Q126E Fc fusion, SEQ ID NO: 99”, the “STAT5 phosphorylation activity in Treg cells (in words)” value in experiment [2] is listed as “pronounced reduced potency”.

In the case of “P-0448: IL-2 L19Q/Q126E Fc fusion, SEQ ID NO: 174”, the “STAT5 phosphorylation activity in CD4+ Tconv cells (in words)” value in experiment [1] is “largely abolished”. Besides, the “STAT5 phosphorylation activity in Treg cells (in words)” value in experiment [2] was “significant potency”. Further, the “activity profile / selectivity window Treg over CD4+ Tconv (in words)” value in experiment [3] is “on par with Benchmark-2”.

For the substance “P-0588: Tocilizumab IL-2 D20S/S125I bivalent fusion, SEQ ID NOs 253 + 257”, in experiment [2], the “STAT5 phosphorylation activity in Treg cells (in words)” value is reported as “reduced potency”.
